Like-named read-outs stand apart in the source and are kept apart here.

IC50 data for 3 molecules are collected here from patent US9227969B2, “Compounds and compositions as inhibitors of MEK” (NOVARTIS AG, priority 2013, dated 2016).

Test [1] has as its target T1, human full length MEK1 kinase (Homo sapiens (Human), UniProt Q02750). Put plainly: biochemical.
Description: (§2) A BRAF-MEK-ERK cascade assay is used to evaluate the effects of these compounds as inhibitors of the MAP kinase pathway. […] TR-FRET (Time resolved fluorescence resonance energy transfer) detection technology is used for the read out.
For test [2], the target named is T1, human full length MEK1 kinase. The note with it: read-out: MEK1 1 mM ATP IC50, BRAF-MEK-ERK cascade.
Description: as §2
Another test addresses LCK (Homo sapiens (Human), UniProt P06239). Briefly: Kinase Panel screen: LCK. The class given is biochemical. From the text: (§1) Compounds of the invention are screened, using assay conditions known in the art, against some or all of the “Kinase Panel” comprising ABL1, ABL1 (T315I), ACVR1, AKT1, ALK, AURKA, AXL, BTK, CAMK2D, CDK1B, CDK2A, CDK4D1, CSK, CSNK1G3, EGFR, EPHA4, EPHB4, ERBB4, FGFR1, FGFR2, FGFR3, FGFR3 (K650E), FGFR4, FLT3 (D835Y), IGF1R, GSK3B, INSR, IRAK4, JAK1, JAK2, JAK3, KDR, KIT, LCK, LYN, MAP3K8, MAPK1, MAPK10, MAPK14, MAPKAPK2, MAPKAPK5, MET, MKNK1, MKNK2, PAK2, PDGFRa, PDPK1, PIM2, PKN1, PKN2, PLK1, PRKACA, PRKCA, PRKCQ, RET, ROCK2, RPS6 KB1, SRC, SYK, TYK2, WNK1, ZAP70, PIKSCD, PIK3CG, MTOR, PIK3C3, PIK3CA, PIK3CB and PIK4CB.

Another test addresses LYN (Homo sapiens (Human), UniProt P07948). Briefly: Kinase Panel screen: LYN. The format is biochemical.
Description: as §1

Another test concerns the target PDGFRa (Homo sapiens (Human), UniProt P16234). Briefly: Kinase Panel screen: PDGFRa. The format is biochemical.
Description: as §1

In another test the target is ABL1 (Homo sapiens (Human), UniProt P00519). Put plainly: Kinase Panel screen: ABL1. The format is biochemical.
Sequence of ABL1 (P00519 whole entry, species assumed): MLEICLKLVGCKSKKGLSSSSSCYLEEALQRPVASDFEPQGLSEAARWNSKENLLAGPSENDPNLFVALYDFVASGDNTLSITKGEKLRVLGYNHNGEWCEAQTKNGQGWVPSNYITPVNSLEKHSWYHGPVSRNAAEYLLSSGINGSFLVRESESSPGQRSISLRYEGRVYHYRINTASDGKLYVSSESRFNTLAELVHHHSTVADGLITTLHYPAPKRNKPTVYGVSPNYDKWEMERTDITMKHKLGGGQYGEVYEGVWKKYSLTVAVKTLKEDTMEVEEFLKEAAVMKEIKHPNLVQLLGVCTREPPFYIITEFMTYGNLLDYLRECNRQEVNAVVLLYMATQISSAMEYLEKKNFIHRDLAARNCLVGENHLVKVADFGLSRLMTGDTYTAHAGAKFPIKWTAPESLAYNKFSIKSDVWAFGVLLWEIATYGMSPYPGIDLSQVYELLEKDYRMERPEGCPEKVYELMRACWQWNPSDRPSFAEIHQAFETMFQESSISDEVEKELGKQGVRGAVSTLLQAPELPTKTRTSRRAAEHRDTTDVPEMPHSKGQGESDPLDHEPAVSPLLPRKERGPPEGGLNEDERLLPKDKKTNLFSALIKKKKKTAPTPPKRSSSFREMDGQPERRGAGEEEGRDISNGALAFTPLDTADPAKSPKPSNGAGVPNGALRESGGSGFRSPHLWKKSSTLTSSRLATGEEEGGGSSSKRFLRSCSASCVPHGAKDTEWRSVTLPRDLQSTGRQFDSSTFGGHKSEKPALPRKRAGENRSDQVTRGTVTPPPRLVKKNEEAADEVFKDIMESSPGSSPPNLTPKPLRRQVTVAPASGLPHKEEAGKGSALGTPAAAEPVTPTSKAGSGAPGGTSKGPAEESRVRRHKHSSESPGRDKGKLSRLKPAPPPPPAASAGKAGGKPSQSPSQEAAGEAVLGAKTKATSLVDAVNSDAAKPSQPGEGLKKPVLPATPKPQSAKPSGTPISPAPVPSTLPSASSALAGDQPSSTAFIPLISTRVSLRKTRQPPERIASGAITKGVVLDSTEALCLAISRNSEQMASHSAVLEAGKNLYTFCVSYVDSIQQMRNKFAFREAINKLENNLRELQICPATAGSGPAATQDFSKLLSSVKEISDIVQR
Description: as §1

T1 sequence (Q02750 whole entry): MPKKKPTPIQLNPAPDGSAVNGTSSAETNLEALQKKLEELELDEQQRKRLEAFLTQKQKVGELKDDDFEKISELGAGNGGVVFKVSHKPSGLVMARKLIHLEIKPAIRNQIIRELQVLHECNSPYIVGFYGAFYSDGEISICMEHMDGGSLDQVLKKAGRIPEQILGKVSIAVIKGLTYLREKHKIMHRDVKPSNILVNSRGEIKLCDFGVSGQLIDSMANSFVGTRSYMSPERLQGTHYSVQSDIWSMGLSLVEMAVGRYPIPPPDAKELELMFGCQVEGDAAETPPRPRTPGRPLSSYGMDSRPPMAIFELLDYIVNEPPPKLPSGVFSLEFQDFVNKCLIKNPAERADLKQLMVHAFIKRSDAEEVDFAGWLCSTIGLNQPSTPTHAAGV
Sequence of LCK (P06239 whole entry, species assumed): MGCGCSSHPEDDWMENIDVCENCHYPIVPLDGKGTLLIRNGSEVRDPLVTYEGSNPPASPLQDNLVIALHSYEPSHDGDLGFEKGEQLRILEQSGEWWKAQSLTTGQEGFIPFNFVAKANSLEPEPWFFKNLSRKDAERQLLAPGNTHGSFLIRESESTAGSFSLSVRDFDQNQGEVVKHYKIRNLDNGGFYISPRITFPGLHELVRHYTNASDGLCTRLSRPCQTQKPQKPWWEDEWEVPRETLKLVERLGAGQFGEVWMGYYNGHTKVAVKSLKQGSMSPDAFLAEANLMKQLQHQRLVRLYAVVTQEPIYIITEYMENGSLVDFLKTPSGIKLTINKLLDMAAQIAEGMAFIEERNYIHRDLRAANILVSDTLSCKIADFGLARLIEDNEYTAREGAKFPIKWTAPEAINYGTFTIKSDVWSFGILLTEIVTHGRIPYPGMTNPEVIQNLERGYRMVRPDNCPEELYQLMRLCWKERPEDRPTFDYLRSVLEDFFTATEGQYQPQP
Sequence of LYN (P07948 whole entry, species assumed): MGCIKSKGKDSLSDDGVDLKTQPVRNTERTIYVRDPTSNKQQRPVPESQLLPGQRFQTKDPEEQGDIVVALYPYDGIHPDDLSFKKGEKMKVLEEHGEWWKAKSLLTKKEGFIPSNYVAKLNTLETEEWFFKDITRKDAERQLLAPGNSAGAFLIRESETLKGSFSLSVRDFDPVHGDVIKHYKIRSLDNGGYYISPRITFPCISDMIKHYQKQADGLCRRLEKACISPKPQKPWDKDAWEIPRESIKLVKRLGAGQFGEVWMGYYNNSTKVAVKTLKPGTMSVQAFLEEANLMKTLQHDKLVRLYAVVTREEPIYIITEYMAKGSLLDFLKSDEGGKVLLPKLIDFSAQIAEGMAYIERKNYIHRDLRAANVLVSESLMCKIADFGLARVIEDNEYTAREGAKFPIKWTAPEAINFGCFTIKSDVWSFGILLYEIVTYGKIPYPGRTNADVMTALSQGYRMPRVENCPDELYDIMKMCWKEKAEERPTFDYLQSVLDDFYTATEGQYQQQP
Sequence of PDGFRa (P16234 24-1089, species assumed): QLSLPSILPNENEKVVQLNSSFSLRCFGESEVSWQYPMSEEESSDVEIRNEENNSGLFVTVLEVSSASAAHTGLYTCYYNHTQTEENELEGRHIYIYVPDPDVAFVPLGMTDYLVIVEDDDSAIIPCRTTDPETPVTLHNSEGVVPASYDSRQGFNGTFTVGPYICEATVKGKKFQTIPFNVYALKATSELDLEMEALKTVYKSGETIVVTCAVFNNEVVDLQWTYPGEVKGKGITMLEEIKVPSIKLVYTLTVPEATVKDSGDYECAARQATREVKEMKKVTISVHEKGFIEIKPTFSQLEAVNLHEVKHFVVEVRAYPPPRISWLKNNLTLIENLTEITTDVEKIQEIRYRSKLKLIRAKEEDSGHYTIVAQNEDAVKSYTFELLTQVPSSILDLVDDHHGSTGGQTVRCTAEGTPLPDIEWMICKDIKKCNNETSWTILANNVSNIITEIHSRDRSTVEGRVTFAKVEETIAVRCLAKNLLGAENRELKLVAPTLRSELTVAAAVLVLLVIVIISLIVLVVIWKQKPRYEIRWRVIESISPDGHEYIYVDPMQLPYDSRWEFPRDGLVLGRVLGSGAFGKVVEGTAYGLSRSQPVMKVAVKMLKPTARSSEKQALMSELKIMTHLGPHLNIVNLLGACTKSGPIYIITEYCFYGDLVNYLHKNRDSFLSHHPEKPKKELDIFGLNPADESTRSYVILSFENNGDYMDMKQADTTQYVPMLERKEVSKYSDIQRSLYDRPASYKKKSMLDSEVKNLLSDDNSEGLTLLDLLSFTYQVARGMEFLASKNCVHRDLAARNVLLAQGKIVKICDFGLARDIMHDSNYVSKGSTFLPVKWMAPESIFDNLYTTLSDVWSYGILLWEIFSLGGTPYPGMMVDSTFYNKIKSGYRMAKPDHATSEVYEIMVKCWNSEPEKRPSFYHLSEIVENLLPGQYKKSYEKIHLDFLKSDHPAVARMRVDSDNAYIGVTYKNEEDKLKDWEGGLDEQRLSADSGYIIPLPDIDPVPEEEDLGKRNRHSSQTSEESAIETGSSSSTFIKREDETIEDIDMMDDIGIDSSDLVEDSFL

Take `Cc1nc2cnc3cc(F)c(-c4ccc(Oc5ncccn5)cc4Cl)cc3c2n1[C@H]1CCN(C(=O)CO)C[C@@H]1F` [Example 1A, 1-((3S,4S)-4-(8-(2-chloro-4-(pyrimidin-2-yloxy)phenyl)-7-fluoro-2-methyl-1H-imidazo[4,5-c]quinolin-1-yl)-3-fluoropiperidin-1-yl)-2-hydroxyethanone]: the IC50 in test [1] and in test [2] was 5 nM throughout.

On to `Cc1nc2cnc3cc(F)c(-c4ccc(Oc5ncccn5)cc4Cl)cc3c2n1[C@@H]1CCN(C(=O)CO)C[C@H]1F` [Example 1B, 1-((3R,4R)-4-(8-(2-chloro-4-(pyrimidin-2-yloxy)phenyl)-7-fluoro-2-methyl-1H-imidazo[4,5-c]quinolin-1-yl)-3-fluoropiperidin-1-yl)-2-hydroxyethanone], for which the IC50 in test [1] and in test [2] was 138 nM each time.

`COc1cc(Oc2ccccn2)ccc1-c1ccc2ncc3ncn(-c4ccc(CC#N)cc4)c3c2c1` [compound (B)]: the IC50 was 7 nM against LCK, 30 nM against LYN, 50 nM against PDGFRa and 20 nM at ABL1.
